Measured values from patent US8546608B2, “Proteasome inhibitors and methods of using the same” (Cephalon, Inc., priority 2003, dated 2013).
Counter-ions that a name gives are not always drawn. Like-named read-outs stand apart in the source and are kept apart here.

Legend:
[1] = target: T1, proteasome in Molt-4 cells (human leukemia) (Homo sapiens, UniProt P20618+P28074); assay type: cell-based
T1 sequence (P28074 60-263): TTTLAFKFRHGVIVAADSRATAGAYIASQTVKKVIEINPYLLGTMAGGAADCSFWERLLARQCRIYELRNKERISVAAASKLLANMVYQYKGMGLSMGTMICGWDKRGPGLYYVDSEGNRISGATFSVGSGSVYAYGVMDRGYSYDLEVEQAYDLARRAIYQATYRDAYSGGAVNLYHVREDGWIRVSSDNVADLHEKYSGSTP
T1 sequence (P20618 29-241): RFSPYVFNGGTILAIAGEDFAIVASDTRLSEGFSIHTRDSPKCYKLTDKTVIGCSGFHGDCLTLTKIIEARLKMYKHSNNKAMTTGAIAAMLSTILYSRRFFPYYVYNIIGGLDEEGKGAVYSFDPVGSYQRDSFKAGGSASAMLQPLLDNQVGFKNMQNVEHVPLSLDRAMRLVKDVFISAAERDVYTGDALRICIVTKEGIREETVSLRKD
Experimental: Cellular Assay for Chymotrypsin-like activity of Proteasome in Molt-4 Cell Line
The chymotrypsin-like activity of proteasome in Molt-4 cells (human leukemia) was assayed according to the following procedure. A brief description of the method was published previously (Harding et al., J. Immunol., 1995, 155, 1767).
Molt-4 cells were washed and resuspended in HEPES-buffered Saline (5.4 mM KCl, 120 mM NaCl, 25 mM Glucose, 1.5 mM MgSO4, 1 mM Na pyruvate, 20 mM Hepes) and plated in 96-well microtiter white plates to a final concentration of 6×10^6 cells/mL. Then various 5× proteasome inhibitor concentrations (or diluted DMSO for controls), prepared from 250×DMSO solutions by diluting 50-fold using HEPES-buffered saline, were added to the plate to a final 1× concentration. After 15 minutes incubation at 37° C., a fluorimetric cell permeable substrate (MeOSuc-FLF-AFC) (methoxysuccinyl-Phe-Leu-Phe-7-amido-4-trifluoromethylcoumarin) purchased from Enzyme Systems Products, catalogue number AFC-88, was added to each well at a final concentration of 25 μM from a stock solution of 20 mM in DMSO. Reaction volumes were 100 μl per well.
The concentration of free AFC was monitored every 1.5 min for 30 min ([…]) on a Polastar Optima, BMG Labtechnologies microplate reader, using an excitation wavelength of 390 nm and emission wavelength of 520 nm. Proteasome activity was determined under conditions in which substrate hydrolysis increased linearly with time and the change in fluorescent signal was proportional to the concentration of free AFC.
Determination of EC50 Values for Proteasome Inhibitors in MOLT-4 Cell Line
Inhibition of chymotrypsin-like activity of proteasome in Molt-4 cells was determined by incubating cells with various concentrations of putative inhibitors for 15 minutes at 37° C. prior to the addition of substrate. Each experimental condition was evaluated in triplicate, and replicate experiments were performed for the inhibitors described herein.

[2] = target: T2, 20S Human Erythrocyte Proteasome (HEP) (Homo sapiens, UniProt P20618+P28074); test: Chymotrypsin-like activity of 20S Human Erythrocyte Proteasome (HEP), IC50 determination; assay type: biochemical; details: assay of Example C, inhibition of HEP
T2 construct: 20S Human Erythrocyte Proteasome (HEP), purchased from Immatics Biotechnologies Inc; purchased Immatics Biotechnologies Inc., Tübingen, Germany; host or cells: human erythrocytes (natural source)
Experimental: Assay for Chymotrypsin-like Activity of 20S Human Erythrocyte Proteasome (HEP)
Proteasome chymotrypsin-like activity of compounds of the invention was assayed according to the following procedure.
In 96-well microtiter plates, 20S Human Erythrocyte Proteasome (HEP), purchased from Immatics Biotechnologies Inc., Tübingen, Germany was plated at 0.2 μg/mL (about 0.6 nM catalytic sites) in 0.04% SDS 20 mM Tris buffer. A fluorimetric substrate Suc-LLVY-AMC (succinyl-Leu-Leu-Val-Tyr-7-amido-4-methylcoumarin), purchased from Sigma Inc., St. Louis, Mo., USA was added to a final concentration of 100 μM from a stock solution of 10 mM in dimethylsulfoxide. Reaction volumes were 100 μl per well. […] Proteasome activity was determined under conditions in which substrate hydrolysis increased linearly with time and the change in fluorescence signal was proportional to the concentration of free AMC.
Determination of IC50 Values for HEP and α-Chymotrypsin Inhibitors
Inhibition of the chymotrypsin-like activity of HEP and of bovine α-chymotrypsin was determined by incubating the enzyme with various concentrations of putative inhibitors for 15 minutes at 37° C. (or room temperature for α-chymotrypsin) prior to the addition of substrate. Each experimental condition was evaluated in triplicate, and replicate experiments were performed for the inhibitors described herein.

[3] = assay of Example E, inhibition of MOLT4; read-out: MOLT4 (EC50)

Row | Compound | EC50 [1, 3] [nM] | IC50 [2] [nM] | EC50 ([1]; read-out: MOLT4 (EC50); assay of Example E, inhibition of MOLT4) [nM]
1 | COC(=O)CCCC(=O)N[C@@H](CCCNC(=N)N[N+](=O)[O-])C(=O)N[C@@H](CC(C)C)B1O[C@@H]2C[C@@H]3C[C@@H](C3(C)C)[C@]2(C)O1 [D.2.1, 4-(methoxycarbonyl)butanamide,N-[(1S)-1-[[[(1R)-1-[(3aS,4S,6S,7aR)-hexahydro-3a,5,5-trimethyl-4,6-methano-1,3,2-benzodioxaborol-2-yl]-3-methylbutyl]amino]carbonyl]-4-[[imino(nitroamino)methyl]amino]butyl]] | 200 to 2000 | < 10 | –
2 | CC(C)C[C@H](NC(=O)[C@@H](NC(=O)c1cnccn1)[C@@H](C)O)B(O)O [E.4.1, Boronic acid, [(1R)-1-[[(2S,3R)-3-hydroxy-2-[(2-pyrazinecarbonyl)amino]-1-oxobutyl]amino]-3-methylbutyl]] | 200 to 2000 | < 100 | –
3 | CC(C)C[C@H](NC(=O)[C@@H](NC(=O)c1ccc(-c2ccccc2)cc1)[C@@H](C)O)B1O[C@@H]2C[C@@H]3C[C@@H](C3(C)C)[C@]2(C)O1 [D.8.6, 4-Phenylbenzamide, N-[(1S,2R)-1-[[[(1R)-1-[(3aS,4S,6S,7aR)-hexahydro-3a,5,5-trimethyl-4,6-methano-1,3,2-benzodioxaborol-2-yl]-3-methylbutyl]amino]carbonyl]-2-hydroxypropyl]] | < 200 | < 10 | –
4 | Boronic acid, [(1R)-1-[[(2S)-5- [[imino(nitroamino)methyl]amino]-2-[[(thiophene- 2-sulfonyl)acetyl]amino]-1-oxopentyl]amino]-3- methylbutyl] [E.2.69] | > 10000 | < 10 | –
5 | COCCOCCOCC(=O)N[C@H](C(=O)N[C@@H](CC(C)C)B1O[C@@H]2C[C@@H]3C[C@@H](C3(C)C)[C@]2(C)O1)[C@@H](C)O [D.3.175, 2-[2-(2-Methoxyethoxy)ethoxy]acetamide,N-[(1S,2R)-1-[[[(1R)-1-[(3aS,4S,6S,7aR)-hexahydro-3a,5,5-trimethyl-4,6-methano-1,3,2-benzodioxaborol-2-yl]-3-methylbutyl]amino]carbonyl]-2-hydroxypropyl]] | 200 to 2000 | < 100 | –
6 | CCCCc1ccc(C(=O)N[C@@H](CNC(=O)c2cc(C)nn2C)C(=O)N[C@@H](CC(C)C)B(O)O)cc1 [E.5.29, Boronic acid, [(1R)-1-[[(2S)-3-(4-(1,3-dimethyl-1H-pyrazole-5-carbonylamino]-2-[(4-butylbenzoyl)amino]-1-oxopropyl]amino]-3-methylbutyl] hydrochloride] | – | < 10 | < 200
7 | CC(C)C[C@H](NC(=O)[C@H](CCCNC(=N)N[N+](=O)[O-])NC(=O)CCc1c[nH]c2ccccc12)B1O[C@@H]2C[C@@H]3C[C@@H](C3(C)C)[C@]2(C)O1 [D.3.103, 3-(1H-Indol-3-yl)-propanamide,N-[(1S)-1-[[[(1R)-1-[(3aS,4S,6S,7aR)-hexahydro-3a,5,5-trimethyl-4,6-methano-1,3,2-benzodioxaborol-2-yl]-3-methylbutyl]amino]carbonyl]-4-[[imino(nitroamino)methyl]amino]butyl]] | 200 to 2000 | < 10 | –
8 | CC(C)C[C@H](NC(=O)[C@@H](NC(=O)c1ccc(Oc2ccccc2)cc1)[C@@H](C)O)B(O)O [E.3.7, Boronic acid, [(1R)-1-[[(2S,3R)-3-hydroxy-2-[(4-Phenoxybenzoyl)amino]-1-oxobutyl]amino]-3-methylbutyl]] | < 200 | < 10 | –
9 | CCCCCCCC(=O)N[C@@H](CCCNC(=N)N[N+](=O)[O-])C(=O)N[C@@H](CC(C)C)B1O[C@@H]2C[C@@H]3C[C@@H](C3(C)C)[C@]2(C)O1 [D.3.8, Octanamide,N-[(1S)-1-[[[(1R)-1-[(3aS,4S,6S,7aR)-hexahydro-3a,5,5-trimethyl-4,6-methano-1,3,2-benzodioxaborol-2-yl]-3-methylbutyl]amino]carbonyl]-4-[[imino(nitroamino)methyl]amino]butyl]] | < 200 | < 10 | –
10 | CC(C)C[C@H](NC(=O)[C@H](CCCNC(=N)N[N+](=O)[O-])NC(=O)CC12CC3CC(CC(C3)C1)C2)B1O[C@@H]2C[C@@H]3C[C@@H](C3(C)C)[C@]2(C)O1 [D.3.58, 2-Adamantan-1-ylacetamide,N-[(1S)-1-[[[(1R)-1-[(3aS,4S,6S,7aR)-hexahydro-3a,5,5-trimethyl-4,6-methano-1,3,2-benzodioxaborol-2-yl]-3-methylbutyl]amino]carbonyl]-4-[[imino(nitroamino)methyl]amino]butyl]] | < 200 | < 10 | –

More lines, main results first:

Row | EC50 [1, 3] [nM] | IC50 [2] [nM] | Compound | EC50 ([1]; read-out: MOLT4 (EC50); assay of Example E, inhibition of MOLT4) [nM]
11 | > 10000 | < 10 | COc1ccc(C(=O)N[C@@H](CCCNC(=N)N[N+](=O)[O-])C(=O)N[C@@H](CC(C)C)B(O)O)cc1F [D.7.35, Boronic acid, [(1R)-1-[[(2S)-5-[[imino(nitroamino)methyl]amino]-2-[(3-fluoro-4-methoxybenzoyl)amino]-1-oxopentyl]amino]-3-methylbutyl]] | –
12 | 2000 to 10000 | < 10 | CC(C)C[C@H](NC(=O)[C@H](CCCNC(=N)N[N+](=O)[O-])NC(=O)C(C)c1ccc(Cl)cc1)B(O)O (mixture of isomers) [E.2.76, Boronic acid, [(1R)-1-[[(2S)-5-[[imino(nitroamino)methyl]amino]-2-[[(RS)-2-(4-chlorophenyl)propanoyl]amino]-1-oxopcntyl]amino]-3-methylbutyl]] | –
13 | 2000 to 10000 | < 10 | C/C(=C\c1ccccc1)C(=O)N[C@@H](CCCNC(=N)N[N+](=O)[O-])C(=O)N[C@@H](CC(C)C)B(O)O [D.7.2, Boronic acid, [(1R)-1-[[(2S)-5-[[imino(nitroamino)methyl]amino]-2-[((E)-2-methyl-3-phenylacryl)amino]-1-oxopentyl]amino]-3-methylbutyl]] | –
14 | < 200 | < 10 | CC(C)C[C@H](NC(=O)[C@H](CCCNC(=N)N[N+](=O)[O-])NC(=O)CCCCCCCCCN1C(=O)c2ccccc2C1=O)B(O)O [E.1.20] | –
15 | 2000 to 10000 | < 100 | CC(=O)CCCC(=O)N[C@@H](CCCNC(=N)N[N+](=O)[O-])C(=O)N[C@@H](CC(C)C)B(O)O [E.2.80, Boronic acid, [(1R)-1-[[(2S)-5-[[imino(nitroamino)methyl]amino]-2-[(5-oxohexanoyl)amino]-1-oxopentyl]amino]-3-methylbutyl]] | –
16 | < 200 | < 10 | CC(C)C[C@H](NC(=O)[C@@H](NC(=O)c1ccc2ccccc2c1)[C@@H](C)O)B(O)O [E.3.1, Boronic acid, [(1R)-1-[[(2S,3R)-3-hydroxy-2-[(2-naphthoyl)amino]-1-oxobutyl]amino]-3-methylbutyl]] | –
17 | > 10000 | < 100 | CC(C)C[C@H](NC(=O)[C@H](CCCNC(=N)N[N+](=O)[O-])NC(=O)C1CC1)B(O)O [D.7.30, Boronic acid, [(1R)-1-[[(2S)-5-[[imino(nitroamino)methyl]amino]-2-[(cyclopropanecarbonyl)amino]-1-oxopentyl]amino]-3-methylbutyl]] | –
18 | < 200 | < 10 | CC(C)C[C@H](NC(=O)[C@H](CCCNC(=N)N[N+](=O)[O-])NC(=O)/C=C/c1ccccc1Br)B1O[C@@H]2C[C@@H]3C[C@@H](C3(C)C)[C@]2(C)O1 [D.3.34] | –
